Data published in patent EP2604624A1, “Bowman-Birk protease Inhibitor (BBI) binding peptides, and uses thereof in the separation, detection or purification of BBI” (University College Dublin National University Of Ireland, …, priority 2011, dated 2013).

Columns and labels:
Settings in all cases: biotinylated peptide 0 to 200 µg.mL, streptavidin-HRP detection
soy whey = system: soy whey
Procedure: (§1) The C-terminus was elongated with a GGGS-CONH2 tail to mimic the GGGS-peptide spacer between the random peptide sequence and the phage protein pIII and to block the negative charge of the carboxyl terminus. […] All synthetic peptides were reconstituted in sterile deionised H2O to a concentration of 2 mg/mL. The ability of biotinylated synthetic peptides (from 0 to 200 µg.mL) to bind to the immobilized purified Bowman-Birk inhibitor, soy pulp and soy whey extracts (and BSA as a negative control) was analyzed in solid phase assays. In this case, the biotinylated synthetic peptides were incubated on BBI coated wells (100 µg.mL) and detected using a streptavidin-HRP conjugate (1:500). Binding and absorbance readings are finally carried out using the TMB substrate as described before.

BBI = system: BBI
Procedure: as §1

soy pulp = system: soy pulp
Procedure: as §1

GAMHLPWHMGTLGGGS-1,2-diaminoethane-biotin [peptide 1]
Dose-dependent binding: binding to soy whey (soy whey) | binding to BBI (BBI) | binding to soy pulp (soy pulp)
